The source made the active and inactive calls. The rule behind the calls is not given here.
What was measured:
[1] = biological target: Human immunodeficiency virus type 1 protease (Human immunodeficiency virus 1) (UniProt Q72874); experiment: Percent inhibition of HIV-1 protease against substrate SQN-(pNO2)F-PIV (test II) at a concentration of 10 e-5M
[2] = biological target: Human immunodeficiency virus type 1 protease (Human immunodeficiency virus 1) (UniProt Q72874); experiment: Percent inhibition of HIV-1 protease against substrate HKARVL-(NO2)F-EAnLSNH2 (test III) at a concentration of 10 e-5M
[3] = biological target: Human immunodeficiency virus type 1 protease (Human immunodeficiency virus 1) (UniProt Q72874); experiment: Percent inhibition of HIV-1 protease against substrate TLNFPIS-AMC (test I) at a concentration of 10 e-5M
[4] = biological target: Human immunodeficiency virus type 1 protease (Human immunodeficiency virus 1) (UniProt Q72874); experiment: Percent inhibition of HIV-1 protease against substrate HKARVL-(NO2)F-EAnLSNH2 (test III) at a concentration of 10 e-5M; Inactive
[5] = biological target: Human immunodeficiency virus type 1 protease (Human immunodeficiency virus 1, UniProt Q72874); experiment: Inhibitory concentration against HIV-1 protease
[6] = biological target: Human immunodeficiency virus type 1 protease (Human immunodeficiency virus 1) (UniProt Q72874); experiment: Percent inhibition of HIV-1 protease against substrate SQN-(pNO2)F-PIV (test II) at a concentration of 10 e-5M; Inactive
[7] = biological target: Human immunodeficiency virus type 1 protease (Human immunodeficiency virus 1) (UniProt Q72874); experiment: Percent inhibition of HIV-1 protease against substrate TLNFPIS-AMC (test I) at a concentration of 10 e-5M; Inactive

SMILES	inhibition [1] [%]	inhibition [2] [%]	inhibition [3] [%]	inhibition [4]	IC50 [5] [nM]	inhibition [6]	inhibition [7]
CC(C)[C@H](NC(=O)OCc1ccccc1)C(=O)N[C@@H](Cc1ccccc1)CN(CCO)CCN(CCO)C[C@H](Cc1ccccc1)NC(=O)[C@H](NC(=O)OCc1ccccc1)C(C)C	30	9	8				
CC(C)[C@H](NC(=O)OCc1ccccc1)C(=O)N[C@@H](Cc1ccccc1)CN(CCN(C[C@H](Cc1ccccc1)NC(=O)[C@H](NC(=O)OCc1ccccc1)C(C)C)C(=O)OC(C)(C)C)C(=O)OC(C)(C)C	3		3	inactive			
CC(C)[C@H](NC(=O)OCc1ccccc1)C(=O)N[C@@H](Cc1ccccc1)CN(CCN(CC(=O)O)C[C@H](Cc1ccccc1)NC(=O)[C@H](NC(=O)OCc1ccccc1)C(C)C)CC(=O)O	53	33	36				
CC(C)[C@H](NC(=O)OCc1ccccc1)C(=O)N[C@@H](Cc1ccccc1)[C@@H](O)[C@H](O)[C@H](Cc1ccccc1)NC(=O)[C@H](NC(=O)OCc1ccccc1)C(C)C					< 1		
CC(C)[C@H](NC(=O)OCc1ccccc1)C(=O)N[C@H](CNCCNC[C@H](Cc1ccccc1)NC(=O)[C@H](NC(=O)OCc1ccccc1)C(C)C)Cc1ccccc1	3		3	inactive			
CC(C)[C@H](NC(=O)OCc1ccccc1)C(=O)N[C@@H](Cc1ccccc1)CN(C)CCN(C)C[C@H](Cc1ccccc1)NC(=O)[C@H](NC(=O)OCc1ccccc1)C(C)C	3		3	inactive			
CC(C)[C@H](NC(=O)OCc1ccccc1)C(=O)N[C@@H](Cc1ccccc1)C(=O)N(C)CCN(C)C(=O)[C@H](Cc1ccccc1)NC(=O)[C@H](NC(=O)OCc1ccccc1)C(C)C		16				inactive	inactive
CC(C)[C@H](NC(=O)OCc1ccccc1)C(=O)N[C@@H](Cc1ccccc1)C(=O)NCCNC(=O)[C@H](Cc1ccccc1)NC(=O)[C@H](NC(=O)OCc1ccccc1)C(C)C		25				inactive	inactive
